Tested on: HeLa cells
Assay: Cisplatin-induced DNA double-strand breaks (gH2Ax positive cells) by flow cytometry
Type: cell-based
Details: with cisplatin, dose-dependent, FIG. 7

Row | SMILES | cisplatin-induced DNA double-strand breaks (gH2Ax positive cells)
1 | N[C@H](CO)Cc1cc(I)c(Oc2ccc(O)cc2)c(I)c1 [(S)-T2AA, (S)-4-(4-(2-amino-3-hydroxypropyl)-2,6-diiodophenoxy)phenol] | at least a doubling

Tested on: DNA polymerase present in a CHO lysate
Assay: In vitro translesion DNA synthesis past a cisplatin adduct
Type: biochemical
Details: FIG. 8
Text: In a further experiment, an in vitro […] DNA polymerization assay was used (e.g. see Hoffman, et al., Proc Natl Acad Sci USA (1996) 93(24), 13766-9). The assay measures the ability of DNA polymerase present in a CHO lysate to catalyze synthesis of a DNA strand past a cisplatin adduct in an oligonucleotide template. The data in FIG. 8 outline the assay approach in the upper panel, and the gel electrophoresis data are shown in the lower panel. […] The negative control lanes (right side of gel image showing the levels of DMSO contributed by the compound) show not effect on DNA synthesis.

Row | SMILES | DNA synthesis past the cisplatin adduct (TLS product)
2 | N[C@H](CO)Cc1cc(I)c(Oc2ccc(O)cc2)c(I)c1 [(S)-T2AA, (S)-4-(4-(2-amino-3-hydroxypropyl)-2,6-diiodophenoxy)phenol] | inhibits

Target: T1, human PCNA recombinant protein (Homo sapiens, UniProt P12004)
T1 construct: The full length human PCNA; made in house; host or cells: Escherichia coli BL21(DE3)
Assay: Fluorescent polarization assay: competition with 5-FAM-labeled PL peptide for PCNA
Type: binding
Details: not given
Text: To determine the binding of the disclosed compounds to the human PCNA recombinant protein, a fluorescence polarization assay was employed. The assay is based on competition between a fluorescent tracer and increasing amounts of competing compound, i.e. a disclosed compound, determined as fluorescence polarization intensity (mP). The fluorescent tracer was 5-carboxyfluorescein (5-FAM) labeled PL peptide (“FAM-PL”). […] PCNA was a recombinant protein purified using standard methods known to one skilled in the art using an expression construct obtained from Dr. Toshiki Tsurimoto, Kyusyu University, Japan.
The volumes of PCNA and FAM-PL were adjusted to ensure that the final concentration of PCNA was 200 nM and FAM-PL was 10 nM. Assays were carried out in 384 well plates in a total volume of about 20-30 μL. […] Fluorescence measurements were made immediately after dilution in the assay plate. […] FP values (P) were calculated in millipolarization units (mP),
where I∥ and I⊥ are the emission intensities recorded, respectively, in the parallel and perpendicular directions relative to the plane of excitation polarization, after background intensity correction. G-factor values (G) for the fluorescein spectral window were measured using 1 nM fluorescein.
Alternatively, the fluorescent polarization assay can be carried out as described in the following. […] Briefly, 20 μl of the assay solution was transferred into each well of a black 384-well plate using Wellmate (Matrix). […] The negative control in each plate was DMSO, whereas the positive control was unlabeled PL-peptide as a self-competitor. […] FP values were calculated in millipolarization units. All data processing was performed using in-house programs in the Pipeline Pilot (Accelrys, version 7.0.1). The quality of the primary screen was assessed by Z-prime and other screening quality metrics.

T1 sequence (P12004 whole entry): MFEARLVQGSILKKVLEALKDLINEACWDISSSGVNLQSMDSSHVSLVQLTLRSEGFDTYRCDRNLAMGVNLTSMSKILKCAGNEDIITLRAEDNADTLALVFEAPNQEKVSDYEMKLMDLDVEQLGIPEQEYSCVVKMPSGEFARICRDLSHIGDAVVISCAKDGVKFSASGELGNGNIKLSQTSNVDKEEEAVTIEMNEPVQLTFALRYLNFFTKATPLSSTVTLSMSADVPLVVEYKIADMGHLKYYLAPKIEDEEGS

Row | SMILES | IC50 [µM]
3 | NCCc1cc(I)c(Oc2ccc(O)cc2)c(I)c1 [MLAG-087, 4-(4-(2-aminoethyl)-2,6-diiodophenoxy)phenol] | 0.9

Same assay, conditions: Table 2; inhibition of FAM-PL peptide binding to PCNA; read-out: IC50

Row | SMILES | IC50 [µM]
4 | CCCCCNC(=O)Cc1cc(I)c(Oc2ccc(O)c(I)c2)c(I)c1 [MLAE-029-9, 2-(4-(4-Hydroxy-3-iodophenoxy)-3,5-diiodophenyl)-N-pentylacetamide] | > 50
5 | O=C(O)CCc1ccc(I)c(Oc2ccc(O)cc2)c1I [MLAF-050, 3-(3-(4-Hydroxyphenoxy)-2,4-diiodophenyl)propanoic acid] | 19
6 | O=C(Cc1cc(I)c(Oc2ccc(O)c(I)c2)c(I)c1)NCc1ccccc1 [MLAE-029-4, N-Benzyl-2-(4-(4-hydroxy-3-iodophenoxy)-3,5-diiodophenyl)acetamide] | > 50
7 | NCc1cc(I)c(Oc2ccc(O)cc2)c(I)c1 [MLAG-082, 4-(4-(aminomethyl)-2,6-diiodophenoxy)phenol] | 1.6
8 | O=C(Cc1cc(I)c(Oc2ccc(O)cc2)c(I)c1)N1CCOCC1 [MLAE-047, 2-(4-(4-hydroxyphenoxy)-3,5-diiodophenyl)-1-morpholinoethanone] | 6.3
9 | COCCNC(=O)CCc1cc(I)c(Oc2ccc(O)cc2)c(I)c1 [MLAE-051-1, 3-(4-(4-Hydroxyphenoxy)-3,5-diiodophenyl)-N-(2-methoxyethyl)propanamide] | 4.9
10 | O=C(CCc1cc(I)c(Oc2ccc(O)c(C(=O)NCc3ccccc3)c2)c(I)c1)NCCO [MLAF-008, N-Benzyl-2-hydroxy-5-(4-(3-((2-hydroxyethyl)amino)-3-oxopropyl)-2,6-diiodophenoxy)benzamide] | 0.4
11 | CCNC(=O)Cc1cc(I)c(Oc2ccc(O)cc2)c(I)c1 [MLAG-066-3, N-ethyl-2-(4-(4-hydroxyphenoxy)-3,5-diiodophenyl)acetamide] | 6.6
12 | COc1ccc(Oc2c(I)cc(CC(=O)N3CCNC(=O)C3)cc2I)cc1 [MLAE-045, 4-(2-(3,5-Diiodo-4-(4-methoxyphenoxy)phenyl)acetyl)piperazin-2-one] | 2.1
13 | CCCOCCNC(=O)CCc1cc(I)c(Oc2ccc(O)cc2)c(I)c1 [MLAE-054-3, 3-(4-(4-Hydroxyphenoxy)-3,5-diiodophenyl)-N-(2-propoxyethyl)propanamide] | 8.3
14 | COc1ccc(Oc2c(I)cc(CCC(=O)N3CCCCC3)cc2I)cc1 [MLAE-039, 3-(3,5-Diiodo-4-(4-methoxyphenoxy)phenyl)-1-(piperidin-1-yl)propan-1-one] | 9.5
15 | CS(=O)(=O)NC(=O)CCc1cc(I)c(Oc2ccc(O)cc2)c(I)c1 [MLAE-038, 3-(4-(4-hydroxyphenoxy)-3,5-diiodophenyl)-N-(methylsulfonyl)propanamide] | 20
16 | O=S(=O)(N[C@H](CO)Cc1cc(I)c(Oc2ccc(O)cc2)c(I)c1)c1ccccc1 [MLAE-058-2, (S)—N-(1-Hydroxy-3-(4-(4-hydroxyphenoxy)-3,5-diiodophenyl)propan-2-yl)benzenesulfonamide] | 6
17 | Oc1ccc(Oc2c(I)cc(C[C@H]3C[NH2+][Pt-2]([Cl])([Cl])[NH2+]3)cc2I)cc1 [SWUA_018, Dichloro((S)-4-(4-(2,3-diaminopropyl)-2,6-diiodophenoxy)phenol)platinum(II)] | 0.27
18 | COc1ccc(Oc2c(I)cc(CCC(=O)NS(C)(=O)=O)cc2I)cc1 [MLAE-036, 3-(3,5-diiodo-4-(4-methoxyphenoxy)phenyl)-N-(methylsulfonyl)propanamide] | > 50
19 | O=C(CCc1ccc(I)c(Oc2ccc(O)cc2)c1I)NCCO [MLAF-051] | 9.5
20 | CS(=O)(=O)NC(=O)Cc1cc(I)c(Oc2ccc(O)cc2)c(I)c1 [MLAE-049, 2-(4-(4-Hydroxyphenoxy)-3,5-diiodophenyl)-N-(methylsulfonyl)acetamide] | 9.1
21 | CCS(=O)(=O)N1CCN(C(=O)CCc2cc(I)c(Oc3ccc(O)cc3)c(I)c2)CC1 [MLAE-051-3, 1-(4-(Ethylsulfonyl)piperazin-1-Yl)-3-(4-(4-hydroxyphenoxy)-3,5-diiodophenyl)propan-1-one] | 2.7
22 | O=C1NC[C@H](Cc2cc(I)c(Oc3ccc(O)cc3)c(I)c2)N1 [MLAG-060, (S)-4-(4-(4-hydroxyphenoxy)-3,5-diiodobenzyl)imidazolidin-2-one] | 5.7
23 | CNC(=O)Cc1cc(I)c(Oc2ccc(O)cc2)c(I)c1 [MLAG-066-1, 2-(4-(4-hydroxyphenoxy)-3,5-diiodophenyl)-N-Methylacetamide] | 8.3
24 | NC(=O)Cc1cc(I)c(Oc2ccc(O)c(I)c2)c(I)c1 [MLAG-088, 2-(4-(4-Hydroxy-3-Iodophenoxy)-3,5-diiodophenyl)acetamide] | 6.6
25 | O=C(CCc1cc(I)c(Oc2ccc(O)c(C(=O)Nc3ccccc3)c2)c(I)c1)NCCO [MLAF-007, 2-Hydroxy-5-(4-(3-((2-hydroxyethyl)amino)-3-oxopropyl)-2,6-diiodophenoxy)-N-phenylbenzamide] | 0.4
26 | CS(=O)(=O)NC(=O)CCc1cc(I)c(Oc2ccc(O)c(C(=O)Nc3ccccc3)c2)c(I)c1 [MLAF-012, 5-(2,6-diiodo-4-(3-(methylsulfonamido)-3-oxopropyl)phenoxy)-2-hydroxy-N-phenylbenzamide] | > 50
27 | CCCCCCNC(=O)NC[C@@H](N)Cc1cc(I)c(Oc2ccc(O)cc2)c(I)c1 [MLAF-086, (S)-1-(2-amino-3-(4-(4-hydroxyphenoxy)-3,5-diiodophenyl)propyl)-3-hexylurea] | 1.3
28 | O=S(=O)(N[C@H](CO)Cc1cc(I)c(Oc2ccc(O)cc2)c(I)c1)c1ccc(O)cc1 [MLAE-060, (S)-4-Hydroxy-N-(1-hydroxy-3-(4-(4-hydroxyphenoxy)-3,5-diiodophenyl)propan-2-yl)benzenesulfonamide] | 32
29 | Cc1cc(CCC(=O)O)cc(C)c1Oc1ccc(O)cc1 [NF021111, 3-(4-(4-hydroxyphenoxy)-3,5-dimethylphenyl)propanoic acid] | > 50
30 | N[C@H](CNC(=O)CO)Cc1cc(I)c(Oc2ccc(O)cc2)c(I)c1 [MLAF-083, (S)—N-(2-amino-3-(4-(4-hydroxyphenoxy)-3,5-diiodophenyl)propyl)-2-hydroxyacetamide] | 1.4
31 | O=C1CN(C(=O)CCc2cc(I)c(Oc3ccc(O)cc3)c(I)c2)CCN1 [MLAE-034, 4-(3-(4-(4-hydroxyphenoxy)-3,5-diiodophenyl)propanoyl)piperazin-2-one] | > 50

Tested on: U2OS cells
Assay: Growth of cells after treatment with cisplatin and T2AA and release (Alamar Blue)
Details: cisplatin alone up to 10 μM, FIG. 28B
Description: The cells were treated with drugs as indicated in a black (transparent flat bottom) 384-well or 96-well plate. Cellular viability was determined by using Alamar Blue reagent (Invitrogen) on an EnVision plate reader according to the manufacturer's recommendations and normalized with signal from wells of DMSO treatment=100% and of no cells=0%.
Viability of the cells was measured by Alamar Blue reagent, and signals were normalized with those of no cell well (0%) and cells with no drugs (100%). NT, no treatment. Error bars, S.D.

Row | SMILES | U2OS cell growth
32 | N.N.[Cl][Pt][Cl] [cisplatin, reference compound] | not significantly affected

Tested on: U2OS cells
Assay: γH2AX staining by flow cytometry, T2AA and cisplatin
Details: single agent, 18 h, FIG. 28A
Description: For γH2AX staining, cells were cultured at 4×10^5 cells/well of 12-well plates in 1 ml of medium, treated with drugs as indicated, trypsin-lifted and stained by using the FlowCellect H2A.X DNA Damage kit (FCCH025142, Millipore) according to the manufacturer's recommendations. All samples were filtered through 40-μm nylon mesh prior to running flow cytometry.
NT, no treatment. Error bars, S.D.

Row | SMILES | γH2AX level (DNA damage response)
33 | N.N.[Cl][Pt][Cl] [cisplatin, reference compound] | significantly induced γH2AX

Tested on: HeLa cells
Assay: CellTiter-Glo cell viability assay with cisplatin
Type: cell-based
Details: increasing concentration of compound, 24 or 48 hours, FIG. 9
Description: Cell viability was determined using CellTiter-Glo® Luminescent Cell Viability Assay (Promega Corporation, Madison, Wis.). Cell viability assays were carried out in 384-well plates after cells were treated for 24 or 48 hours with the disclosed compounds.

Row | SMILES | cell viability for a given concentration of cisplatin
34 | N[C@H](CO)Cc1cc(I)c(Oc2ccc(O)cc2)c(I)c1 [(S)-T2AA, (S)-4-(4-(2-amino-3-hydroxypropyl)-2,6-diiodophenoxy)phenol] | greater loss of cell viability

Target: PCNA/full-length p21 interaction (Homo sapiens, UniProt P12004)
Assay: Pull-down competition assay: PCNA captured by immobilized full-length p21-His6
Details: FIG. 5, gel electrophoresis
Description: A H is protein interaction pull-down kit (Thermo Scientific) was used, in which a 4:1 mixture of TBS and lysis buffer provided in the kit was used as the buffer throughout. For immobilizing p21, 100 μg of p21His6 was incubated overnight at 4° C. with 25 μl (50% suspension) of prewashed cobalt chelate resin in 500 μl of the buffer and washed with the buffer four times. […] After the mixture was incubated overnight at 4° C., the resin was washed with buffer four times, and the bound proteins were eluted with 100 μl of the buffer containing 400 mM imidazole. Each 10 μl of the eluted samples was analyzed by SDS-PAGE with Oriole fluorescent gel stain (BioRad) and a Fluor Chem imager (Alpha Innotech).

PCNA/full-length p21 interaction, sequence (P12004 whole entry): as above

Row | SMILES | level of PCNA captured by His6 p21
35 | CS(=O)(=O)NC(=O)CCc1cc(I)c(Oc2ccc(O)cc2)c(I)c1 [MLAE-038, 3-(4-(4-hydroxyphenoxy)-3,5-diiodophenyl)-N-(methylsulfonyl)propanamide] | decreased significantly

Tested on: U2OS cells
Assay: U2OS cell viability with cisplatin and test compound (AlamarBlue, 4 days)
Type: cell-based
Details: cisplatin alone up to 10 μM, FIG. 21
Description: U2OS cells were cultured in DMEM in a 384-well plate (3000 cells/20 μL per well), treated with indicated dilution of cisplatin (see FIG. 21) and each indicated test compound (15 μM; 20 μL per well in DMEM), and cultured for 4-days. AlamarBlue reagent (Invitrogen, 4 μL per well) was added and signals were read per manufacturer's recommendation. Signals of wells contains no cells and cells with no drugs served as 0% and 100% viability, respectively.

Row | SMILES | U2OS cell growth
36 | N.N.[Cl][Pt][Cl] [cisplatin, reference compound] | not significantly affected

Source: US20140288077A1, “SUBSTITUTED 4-PHENOXYPHENOL ANALOGS AS MODULATORS OF PROLIFERATING CELL NUCLEAR ANTIGEN ACTIVITY” (ST. JUDE CHILDREN'S RESEARCH HOSPITAL, priority 2011, published 2014)
